# In patent US7541156B1, “Method of identifying antinociceptive compounds using protease activated receptor-2” (priority 2000, dated 2009):
# “Also recorded” adds a separate entry of the source.
# Tested on: pancreatic afferent neurons / spinal segments T8-T10
# Experiment: c-FOS expression in spinal cord segments after pancreatic intraductal injection
# Format: in vivo, rat
# Experimental: Intraductal (pancreatic duct) injection. To administer the necessary peptides directly into the rat pancreatic duct we followed a modified protocol, previously described by Kim et al. (1996). In brief, rats were anesthetized i.p. with nembutal sodium (Abbot Laboratories, Chicago, Ill.) (50 mg/kg body weight). The peritoneum was incised to expose the duodenum and the duodenal loop was pulled out. The pancreatic duct entering the duodenum was identified under dissecting microscope and a small niche was made into the duct with a 30-gauge needle. A polyethylene 10 tubing (0.61 mm outer diameter) (Becton Dickinson and Company, Franklin Lakes, N.J.) was guided into the duct and tied to secure its position. The common bile duct was ligated close to the liver to prevent entry of the injected substance into the liver. Similarly the duct was ligated near its entry into the duodenum. The position of the tube into the pancreatic duct was confirmed by freely flowing bile through the tubing. […] Thirty minutes later Capsaicin 0.5 mg/kg (total volume 500 μl) or vehicle (1×PBS, 10% ETOH, 1% Tween) was injected to half of the AcPep or CoPep injected rats. Three rats were included in each treatment group (n=3 for number of experiments). The tubing was carefully removed and bile flow from the liver into the duodenum was re-established. The abdominal cavity was closed with sutures. Rats were sacrificed 2.5 hrs after the initial injection.
# C-fos staining. Rats were anesthetized with sodium pentobarbital (50 mg/kg i.p.) and perfused with 200 mls PBS followed by 500 mls ice-cold freshly prepared 4% paraformaldehyde in PBS. Spinal cord (level T5-T13) was removed, post-fixed in 4% paraformaldehyde for 18 hrs at 4° C. and placed in PBS (pH 7.4) containing 30% sucrose for 24 hrs at 4° C. Frozen sections (40 μm) were cut on a cryostat and stored as floating sections in PBS at 4° C. Every third section was stained for c-fos with a rabbit polyclonal serum, 1:1000 dilution, (c-fos, Ab-5, Oncogene Research Products) utilizing manufacturer's protocol. Antibody staining was visualized using a biotinylated secondary antisera and Vectastain ABC peroxidase kit with DAB as substrate. Sections were mounted on Superfrost Plus slides (VWR Scientific, West Chester, Pa.) and dehydrated. The number of c-FOS immunoreactive (IR) neurons were counted in 10 randomly chosen sections per segment under brightfield illumination and then averaged.
# Statistics. Release data are presented as the mean± standard error of the mean (SEM) of wells from three separate experiments. […] Intraductal injection studies were analyzed using a repeated measure ANOVA and individual means were compared using a Newman-Keuls multiple comparison test. […]
substance,measurement,setting,value
SLIGRL (PEPTIDE (1)..(6) PAR-2 activating peptide; listed as Rattus sp.) [AcPep],"c-FOS IR neurons in segments T8-T10, peptide alone","100 μM infused into the pancreatic duct, 2.5 hours, compared to CoPep",more c-FOS IR neurons; also recorded: does increase c-FOS expression
same,"c-FOS expression in spinal segments T8-T10, peptide alone","intraductal injection of AcPep 10 μM, 2.5 hours later, compared to control rats",significantly increased
same,Capsaicin-evoked c-FOS expression in segments T8-T10,"peptide 100 μM intraductal, followed 30 min later by Capsaicin 0.5 mg/kg, 2.5 hours",more c-FOS; also recorded: enhanced Capsaicin-evoked c-FOS expression
